The subject of the test is PMN isolated from a healthy donor. The test can be described thus: FACS of untreated or Thapsigargin-treated PMN for LOX-1 expression. The class given is cell-based, human. The note with it: 1 μM Thapsigargin (THG). On the procedure: FIGS. 10A and 10B show FACS analyses of PMN cells showing the expression of LOX-1. Representative histograms of untreated or Thapsigargin (THG)-treated cells were stained after incubating with anti-LOX-1 antibody (Ab) are shown. Percentage of LOX-1^+ PMN and expression of LOX-1 in PMN isolated from a healthy donor and treated with 1 μM […] and 1 mM Dithiothreitol (DTT). Representative LOX-1 expression level with anti-LOX-1 and commercial Abs. Representative LOX-1 expression level with DMAb derived Abs. Summary of data derived from FACS analysis of LOX-1 level is expressed as the % of LOX-1^+/CD15^+.

We go through one molecule from patent US20220381787A1, “NOVEL LOX-1 ANTIBODY COMPOSITIONS, LOX1 NEUTRALIZATION ASSAY AND METHODS OF TREATMENT USING SAME” (The Wistar Institute of Anatomy and Biology, priority 2019, published 2022).

For the molecule `C/C=C(/C)C(=O)O[C@H]1C(C)=C2[C@H]([C@@H]1OC(=O)CCCCCCC)[C@@](C)(OC(C)=O)C[C@H](OC(=O)CCC)[C@@]1(O)[C@H]2OC(=O)[C@@]1(C)O` [THG, Thapsigargin], the “percentage of LOX-1+ PMN (% of LOX-1+/CD15+)” value is on record as “Higher percentages of PMN expressed LOX-1”.
